Experimental data reported in patent US6489362B1, “Carnitine supplemented diet to prevent or alleviate ascites in broiler type poultry” (The Board of Regents for Oklahoma State University, priority 1999, dated 2002).

Columns and labels:
[1] = test system: growing broilers; conditions: cited from earlier work
[2] = test system: broilers; assay: Further examples: hematocrit of broilers fed carnitine supplemented diets; format: in vivo, broiler type chickens; conditions: for Hematocrit HCT: control 0: 33.40
Description: Materials and Methods: Male Cobb-500 broiler chicks (obtained from Cobb Vantress of Siloam Springs, Ark.) were used. The chicks were divided into 24 groups of […] chicks and randomly assigned to 60 open circuit respiratory chambers in three separate rooms. The chambers were housed in 3 thermostatically controlled rooms with 24 hour fluorescent light. […]
(§1) Feed and drinking water were provided for ad-libitum consumption. Chamber temperature was maintained at 30° C. the first 5 days of age and at 27.8° C. thereafter. Chambers were checked twice daily for bird mortality. Body weights of each chick were obtained on day 0, 7 and 14. Feed consumption was determined on a chamber basis at the end of 1 and 2 weeks and feed efficiency calculated. Oxygen consumption and CO2 production was recorded continuously on all chambers. Five birds at the start of the experiment were sacrificed for determination of initial composition. At the end of the experiment (Week 2) blood samples were taken from the wing vain of all birds for hematocrit determination. Heart weight and right ventricular mass of each bird were measured and the carcass saved for determination of lean and fat tissue gain using a Hologic densitometer.

[3] = test system: Male Cobb-500 broiler chicks; assay: Carnitine supplemented basal diets fed to broiler chicks in respiratory chambers to 14 days of age; format: in vivo, broiler type chickens; conditions: carnitine 200 ppm in basal diet; for Right ventricular weight (RV) / Ascites heart ratio (AHR), ratio of right ventricular mass to heart weight: 14 days of age; for Right ventricular weight (RV): control 0 ppm 0.21 ± 0.005; for Ascites heart ratio (AHR), ratio of right ventricular mass to heart weight: control 0 ppm 11.45 ± 0.24; for Hematocrit HCT: blood at week 2, control 0 ppm 36.11 ± 0.26
Description: Materials and Methods: Male Cobb-500 broiler chicks (obtained from Cobb Vantress of Siloam Springs, Ark.) were used. The chicks were divided into 24 groups of […] chicks and randomly assigned to 60 open circuit respiratory chambers in three separate rooms. The chambers were housed in 3 thermostatically controlled rooms with 24 hour fluorescent light. Two levels of carnitine (0,200 ppm) were added to the basal diets (Table 1) and examined at two oxygen levels (17 and 20.6%).
as §1
Breathing Air Supply and Analysis: Compressed dried air (7% relative humidity (RH), 20.6% O2) was delivered to chicks in the chamber via polyethylene tubes. It was necessary to provide low RH air to the chick chamber in order to hold the chamber at RH below 75%. The concentration of O2 and CO2 in air exiting each bird's chamber was monitored each day using Ametek oxygen (accuracy±0.02%) and carbon dioxide (accuracy±.03%) analyzers, respectively.
Statistical Analysis: Data were analyzed using the General Linear Model procedure of SAS (SAS, 1985). When a significant F statistic was noted by ANOVA, treatment means were compared using least square analysis variance.

C[N+](C)(C)CC(O)CC(=O)[O-] (stereo not drawn) [Carnitine, 3-hydroxy-4-N-trimethylaminobutyric acid]
Effect on feed intake, body and abdominal fat weight, carcass or liver lipid levels ([1]; carnitine in poultry diet, growing broilers (Cartwright 1986)): no beneficial effect | Ethanol metabolism in broilers ([1]; dietary carnitine (Smith et al. 1992)): retard ethanol metabolism | Hatchability of eggs ([1]; dietary carnitine (U.S. Pat. No. 5,362,753)): increase the hatchability of eggs | Hematocrit HCT ([2]; carnitine level 12.5 (ppm) in diet): 32.11% | Hematocrit HCT ([2]; carnitine level 50 (ppm) in diet): 31.99% | Hematocrit HCT ([2]; carnitine level 100 (ppm) in diet): 30.60% | Hematocrit values, change versus unsupplemented diet ([2]; diets at 12.5, 50 and 100 ppm carnitine): beneficial and significant lowering | Right ventricular weight (RV) [3]: 0.20 ± 0.006 g | Right ventricular weight (RV) ([3]; listed as carnitine): significantly decreased | Ascites heart ratio (AHR), ratio of right ventricular mass to heart weight [3]: 10.57 ± 0.26% | Ascites heart ratio (AHR), ratio of right ventricular mass to heart weight ([3]; listed as carnitine): significantly decreased | Hematocrit HCT [3]: 35.41 ± 0.24% | Hematocrit HCT ([3]; listed as carnitine): significantly decreased | Body weight gain (Gain) ([3]; broilers to 14 days of age): 265 ± 3.1 g/b | Gain:feed ratio ([3]; broilers to 14 days of age): 0.76 ± 0.0
